Where no end group is shown, it is not given here.
Legend:
[1] = Stability of the cyclic peptide against ROS environment; format: physicochemical; conditions: P1 ∼100 μM, ∼150 μM H2O2 in PBS pH 7.4, after 6 h, LC-MS
[2] = pH 2
[3] = format: physicochemical; conditions: equimolar semicarbazide derivative (∼100 μM) in PBS pH 7.4, 20 min, LC-MS

For “CIITRPC (also: sidechain bridge or staple (positions not given here)) [P1]”, the “Stability in H2O2” value [1] was “remarkable stability”, the “Stability under a wide range of pH values (no complete dissociation of the thiazolidine ring)” value [2] was “high stability” and the “Linearization by semicarbazide (diazaborine conjugate formation)” value [3] was “linearized”.
